# In ChEMBL document CHEMBL1201862, “PubChem BioAssay data set” (2004):
# The source made the active and inactive calls.
# How the values were obtained:
# [1] = target: Eukaryotic translation initiation factor 4E (Mus musculus, UniProt P63073); experiment: blockers of eIF4G binding by eIF4E – biochemical, TR-FRET, dose response (AID 855); type: functional;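 further: potency for disrupting eIF4E binding to eIF4GI seen as loss of FRET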
# [2] = target: T1, Acyl-homoserine lactone acylase PvdQ (Pseudomonas aeruginosa (strain LESB58), UniProt Q9I194); experiment: PvdQ acylase enzyme activity blockers – biochemical, fluorescence, plate reader and imaging, cherry-picks, dose response (AID 493231)
# T1 sequence (Q9I194 whole entry): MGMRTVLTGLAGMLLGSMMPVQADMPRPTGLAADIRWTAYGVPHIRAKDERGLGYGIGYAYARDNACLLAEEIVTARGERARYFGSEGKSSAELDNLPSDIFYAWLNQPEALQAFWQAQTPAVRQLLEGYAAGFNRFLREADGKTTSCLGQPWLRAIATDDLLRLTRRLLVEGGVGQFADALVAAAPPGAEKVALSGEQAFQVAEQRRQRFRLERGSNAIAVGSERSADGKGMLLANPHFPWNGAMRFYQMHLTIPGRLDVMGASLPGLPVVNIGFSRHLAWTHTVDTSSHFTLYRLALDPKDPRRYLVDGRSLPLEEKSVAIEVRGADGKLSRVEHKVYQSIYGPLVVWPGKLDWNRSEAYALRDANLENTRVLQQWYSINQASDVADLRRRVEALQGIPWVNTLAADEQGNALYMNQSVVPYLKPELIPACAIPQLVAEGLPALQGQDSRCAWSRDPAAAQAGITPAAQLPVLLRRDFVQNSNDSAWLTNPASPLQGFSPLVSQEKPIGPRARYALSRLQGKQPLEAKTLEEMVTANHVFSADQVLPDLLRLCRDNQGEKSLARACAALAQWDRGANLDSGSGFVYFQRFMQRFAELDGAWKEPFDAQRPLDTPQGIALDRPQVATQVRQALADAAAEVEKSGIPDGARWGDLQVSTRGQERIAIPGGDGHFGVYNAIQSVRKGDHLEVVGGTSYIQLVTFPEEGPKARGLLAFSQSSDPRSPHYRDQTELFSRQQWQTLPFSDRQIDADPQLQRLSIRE
# [3] = target: T2, Nuclear receptor subfamily 0 group B member 1 (Homo sapiens, UniProt P51843); experiment: Luminescence-based cell-based high throughput dose response assay for inhibitors of the orphan nuclear receptor subfamily 0, group B, member 1 (DAX1; NR0B1). [Related pubchem assays (depositor defined):AID504766, AID504790]; type: functional
# T2 sequence (P51843 whole entry): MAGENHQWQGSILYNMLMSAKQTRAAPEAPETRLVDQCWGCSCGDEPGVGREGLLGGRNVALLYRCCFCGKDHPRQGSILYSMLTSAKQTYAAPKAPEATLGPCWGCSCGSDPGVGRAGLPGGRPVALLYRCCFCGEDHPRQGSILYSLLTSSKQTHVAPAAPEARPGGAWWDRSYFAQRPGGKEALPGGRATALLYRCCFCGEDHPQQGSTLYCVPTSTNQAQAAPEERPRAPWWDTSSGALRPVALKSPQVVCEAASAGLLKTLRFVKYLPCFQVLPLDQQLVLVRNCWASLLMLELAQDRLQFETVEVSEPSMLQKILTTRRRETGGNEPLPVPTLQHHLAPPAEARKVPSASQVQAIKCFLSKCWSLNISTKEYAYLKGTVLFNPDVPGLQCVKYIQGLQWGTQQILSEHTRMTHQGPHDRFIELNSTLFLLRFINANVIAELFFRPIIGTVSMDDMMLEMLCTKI
# HEK293 = experiment: cells; type: functional, cell-based; conditions: Homo sapiens
# [4] = HEK-293T cell viability reduction – luminescence, B-cell screen hits, cytotoxicity control for BCR NF-kB inhibitor project, dose response (AID 489021); type: functional, cell-based;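 further: HEK-293T cells carrying an NF-kB luciferase reporter; cells exposed to compound for about 14 hours before viability readout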
# [5] = A cytotoxicity screen of small molecule inhibitors of the PhoP region in Salmonella typhi identified in the primary screen. [Related pubchem assays: 1850, 1864, 1985 ]; type: functional
# Protein RecA = target: T3, Protein RecA (Mycobacterium tuberculosis, UniProt P9WHJ3); experiment: Fluorescence Cell-Free Homogeneous Dose Retest to Identify Inhibitors of RecA-Intein Splicing Activity. [Related pubchem assays (depositor defined):AID2097, AID2223, AID489010, AID492950]; type: functional
# T3 sequence (P9WHJ3 whole entry): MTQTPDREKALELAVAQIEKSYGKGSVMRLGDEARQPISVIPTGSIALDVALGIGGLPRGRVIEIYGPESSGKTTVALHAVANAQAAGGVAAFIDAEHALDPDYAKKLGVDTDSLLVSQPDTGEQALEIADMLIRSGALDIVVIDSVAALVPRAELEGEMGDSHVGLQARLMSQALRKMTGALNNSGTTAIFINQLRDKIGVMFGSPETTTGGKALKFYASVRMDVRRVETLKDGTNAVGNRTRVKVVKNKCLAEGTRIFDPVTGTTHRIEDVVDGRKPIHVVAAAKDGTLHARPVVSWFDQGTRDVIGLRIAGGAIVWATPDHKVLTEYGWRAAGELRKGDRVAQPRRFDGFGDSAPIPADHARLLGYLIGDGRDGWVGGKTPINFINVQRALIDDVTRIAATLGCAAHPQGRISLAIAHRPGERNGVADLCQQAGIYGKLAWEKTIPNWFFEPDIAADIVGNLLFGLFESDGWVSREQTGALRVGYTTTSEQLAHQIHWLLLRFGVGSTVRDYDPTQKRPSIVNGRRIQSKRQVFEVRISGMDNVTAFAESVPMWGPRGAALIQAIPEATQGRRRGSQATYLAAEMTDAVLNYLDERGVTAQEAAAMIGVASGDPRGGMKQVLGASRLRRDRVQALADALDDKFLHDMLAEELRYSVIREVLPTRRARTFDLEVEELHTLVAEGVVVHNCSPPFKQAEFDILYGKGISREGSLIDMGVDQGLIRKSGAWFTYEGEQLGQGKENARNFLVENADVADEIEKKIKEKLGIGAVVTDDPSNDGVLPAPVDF
# Aminopeptidase N = target: T4, Aminopeptidase N (Plasmodium falciparum FcB1/Columbia, UniProt O96935); experiment: malaria alanyl aminopeptidase activity blockers – biochemical, fluorogenic H-Leu-NHMec substrate, 1536-well (AID 1445); parameters: species or system Plasmodium falciparum 3D7, 3D7
# T4 sequence (O96935 whole entry): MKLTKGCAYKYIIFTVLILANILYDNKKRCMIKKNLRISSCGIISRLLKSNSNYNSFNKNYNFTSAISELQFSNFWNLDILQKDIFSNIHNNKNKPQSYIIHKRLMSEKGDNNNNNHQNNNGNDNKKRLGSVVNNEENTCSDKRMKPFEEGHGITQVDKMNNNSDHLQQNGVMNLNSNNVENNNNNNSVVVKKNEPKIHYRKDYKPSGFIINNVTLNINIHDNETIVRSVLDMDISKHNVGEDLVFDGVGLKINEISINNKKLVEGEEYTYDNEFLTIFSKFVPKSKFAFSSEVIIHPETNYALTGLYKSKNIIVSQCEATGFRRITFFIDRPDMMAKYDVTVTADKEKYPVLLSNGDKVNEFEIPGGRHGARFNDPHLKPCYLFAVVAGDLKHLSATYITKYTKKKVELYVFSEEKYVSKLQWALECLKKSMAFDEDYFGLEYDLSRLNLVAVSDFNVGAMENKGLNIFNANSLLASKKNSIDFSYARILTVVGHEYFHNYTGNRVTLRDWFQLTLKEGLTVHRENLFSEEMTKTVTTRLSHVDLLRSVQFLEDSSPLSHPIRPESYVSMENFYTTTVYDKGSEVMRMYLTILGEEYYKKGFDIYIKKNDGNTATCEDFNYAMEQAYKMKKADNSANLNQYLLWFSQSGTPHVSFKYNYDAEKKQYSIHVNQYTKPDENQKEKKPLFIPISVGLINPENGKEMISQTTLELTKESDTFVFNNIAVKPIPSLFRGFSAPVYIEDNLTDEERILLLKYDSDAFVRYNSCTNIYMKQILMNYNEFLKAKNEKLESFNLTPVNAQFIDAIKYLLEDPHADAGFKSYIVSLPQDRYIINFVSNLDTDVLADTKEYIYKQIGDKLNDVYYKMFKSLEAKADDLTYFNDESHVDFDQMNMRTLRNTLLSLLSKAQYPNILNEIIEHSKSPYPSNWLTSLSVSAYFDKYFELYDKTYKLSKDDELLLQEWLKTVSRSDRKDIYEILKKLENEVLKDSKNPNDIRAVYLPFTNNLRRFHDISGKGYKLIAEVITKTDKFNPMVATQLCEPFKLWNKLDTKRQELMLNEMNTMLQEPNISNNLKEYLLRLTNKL
# [6] = target: Induced myeloid leukemia cell differentiation protein Mcl-1 (Homo sapiens, UniProt Q07820); type: functional
# [7] = target: T5, Calpain-2 catalytic subunit (Sus scrofa, UniProt P43367); experiment: m-calpain protease blockers, concentration series – biochemical, fluorogenic peptide substrate, dose response (AID 1420); type: functional
# T5 sequence (P43367 whole entry): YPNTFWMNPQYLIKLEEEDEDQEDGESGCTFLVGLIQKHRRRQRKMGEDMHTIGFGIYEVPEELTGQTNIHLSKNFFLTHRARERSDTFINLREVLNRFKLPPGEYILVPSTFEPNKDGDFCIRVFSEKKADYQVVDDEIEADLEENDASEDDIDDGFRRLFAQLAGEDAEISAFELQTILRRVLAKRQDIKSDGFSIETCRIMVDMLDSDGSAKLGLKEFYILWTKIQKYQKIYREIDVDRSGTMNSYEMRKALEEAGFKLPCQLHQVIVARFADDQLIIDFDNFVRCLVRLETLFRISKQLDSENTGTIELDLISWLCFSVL
# [8] = target: T6, Replicative DNA helicase DnaB (Mycobacterium tuberculosis, UniProt P9WMR3); experiment: DnaB intein splicing inhibitors, dose response, biochemical, cell-free fluorescence (AID 449749); type: functional
# T6 sequence (P9WMR3 whole entry): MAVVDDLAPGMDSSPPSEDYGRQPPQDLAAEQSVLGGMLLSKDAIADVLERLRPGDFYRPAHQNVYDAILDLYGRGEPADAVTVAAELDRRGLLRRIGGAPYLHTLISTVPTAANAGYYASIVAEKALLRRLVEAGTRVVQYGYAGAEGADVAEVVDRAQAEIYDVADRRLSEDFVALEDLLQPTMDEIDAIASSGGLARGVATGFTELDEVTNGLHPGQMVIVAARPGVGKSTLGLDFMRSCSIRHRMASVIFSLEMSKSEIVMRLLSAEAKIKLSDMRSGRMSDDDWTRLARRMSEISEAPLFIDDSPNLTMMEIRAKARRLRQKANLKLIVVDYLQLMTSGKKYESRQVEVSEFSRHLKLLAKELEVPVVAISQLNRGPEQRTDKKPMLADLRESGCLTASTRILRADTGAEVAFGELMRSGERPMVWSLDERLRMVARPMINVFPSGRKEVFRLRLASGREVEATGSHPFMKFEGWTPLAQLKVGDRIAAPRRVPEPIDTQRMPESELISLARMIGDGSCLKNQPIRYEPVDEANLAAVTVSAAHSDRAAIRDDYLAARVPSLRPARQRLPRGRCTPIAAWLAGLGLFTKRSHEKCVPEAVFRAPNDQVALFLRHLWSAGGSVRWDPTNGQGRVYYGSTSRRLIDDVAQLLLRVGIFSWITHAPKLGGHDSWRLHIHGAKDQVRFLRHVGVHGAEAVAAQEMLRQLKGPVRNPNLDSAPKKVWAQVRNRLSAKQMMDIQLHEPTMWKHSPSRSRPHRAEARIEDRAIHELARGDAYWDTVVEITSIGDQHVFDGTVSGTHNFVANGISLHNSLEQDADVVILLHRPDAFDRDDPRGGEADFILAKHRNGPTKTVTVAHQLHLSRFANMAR
# [9] = CCR5-tropic HIV-1 fusion blockers – cell-based, CCR5-tropic Env, dose response (AID 2279); type: functional
# [10] = target: T7, Rac GTPase-activating protein 1 (Homo sapiens, UniProt Q9H0H5); experiment: blockers of MgcRacGAP-driven Rac1 GTP hydrolysis – biochemical, ADP Hunter fluorescence, primary and confirmatory, confirmation (AID 624330); type: functional
# T7 sequence (Q9H0H5 whole entry): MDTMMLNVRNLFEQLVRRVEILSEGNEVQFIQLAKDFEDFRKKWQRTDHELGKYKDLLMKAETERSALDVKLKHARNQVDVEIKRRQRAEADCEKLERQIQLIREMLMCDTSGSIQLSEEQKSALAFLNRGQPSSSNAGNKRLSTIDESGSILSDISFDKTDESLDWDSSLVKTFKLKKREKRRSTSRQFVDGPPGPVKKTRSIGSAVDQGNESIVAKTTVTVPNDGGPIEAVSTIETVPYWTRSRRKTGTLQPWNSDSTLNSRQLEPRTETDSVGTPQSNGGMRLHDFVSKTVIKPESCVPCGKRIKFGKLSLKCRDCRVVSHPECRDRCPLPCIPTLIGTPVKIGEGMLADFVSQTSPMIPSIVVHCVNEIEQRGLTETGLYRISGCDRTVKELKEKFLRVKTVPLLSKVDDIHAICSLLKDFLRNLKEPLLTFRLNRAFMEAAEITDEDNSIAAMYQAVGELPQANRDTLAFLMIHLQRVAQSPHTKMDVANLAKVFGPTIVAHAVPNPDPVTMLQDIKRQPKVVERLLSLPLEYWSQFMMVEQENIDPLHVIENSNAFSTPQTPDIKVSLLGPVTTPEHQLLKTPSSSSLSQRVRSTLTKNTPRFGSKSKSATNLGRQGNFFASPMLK
# Chain of Induced myeloid leukemia cell differentiation protein Mcl-1 (Q07820 whole entry): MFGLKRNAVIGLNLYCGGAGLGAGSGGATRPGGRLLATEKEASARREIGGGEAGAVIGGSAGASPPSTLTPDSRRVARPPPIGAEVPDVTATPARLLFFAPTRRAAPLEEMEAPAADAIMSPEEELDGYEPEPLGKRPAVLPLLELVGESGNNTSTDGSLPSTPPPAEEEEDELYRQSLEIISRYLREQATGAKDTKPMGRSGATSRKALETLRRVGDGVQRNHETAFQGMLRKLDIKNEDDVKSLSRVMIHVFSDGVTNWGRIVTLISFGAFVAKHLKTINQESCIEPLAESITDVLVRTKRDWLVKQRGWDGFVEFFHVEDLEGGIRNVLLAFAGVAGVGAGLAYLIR
# Chain of Eukaryotic translation initiation factor 4E (P63073 whole entry): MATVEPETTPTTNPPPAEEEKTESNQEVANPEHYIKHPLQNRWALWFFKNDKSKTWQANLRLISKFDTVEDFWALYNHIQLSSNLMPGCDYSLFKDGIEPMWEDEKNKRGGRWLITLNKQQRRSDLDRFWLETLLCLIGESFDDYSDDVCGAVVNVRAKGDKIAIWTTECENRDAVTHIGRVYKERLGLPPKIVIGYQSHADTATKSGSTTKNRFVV
compound,measurement,setting,value
COc1ccccc1NS(=O)(=O)c1ccc(NN=C2CCCC2)c([N+](=O)[O-])c1,IC50,[1],> 64 µM (inactive)
O=C1C2C3C=CC(C4CC34)C2C(=O)N1Cc1ccco1 (centres undefined),AC50,[2],12.4 µM (active)
O=C1C=C(c2cccc(Br)c2)C[C@@H](c2ccc(F)cc2)C1,AC50,[2],48.9 µM (active)
Cn1c(=O)n(C)c2cc(C(=O)Nc3ccc4c(c3)OCO4)ccc21,IC50,[3],4.57 µM (active)
same,IC50,HEK293,> 67.5 µM (inactive)
same,IC50,[4],> 80 µM (inactive)
COc1ccc(N2CCN(C(CNC(=O)c3ccc4c(c3)OCO4)c3ccco3)CC2)cc1 (centres undefined),EC50,[5],> 50 µM (active)
COc1cc(/C=C2/SC(=S)NC2=O)ccc1OS(=O)(=O)c1ccc(C)cc1,EC50,Protein RecA,11.9 µM (active)
same,IC50,Aminopeptidase N,51.8 µM (active)
same,IC50,[6],3.44 µM (active)
same,IC50,[7],13.4 µM (not active)
same,AC50,[8],3.21 µM (active)
same,IC50,[9],10.3 µM (active)
Cc1ccc(NC(=O)CN(C)C2CCCCC2)cc1Br,EC50,[5],> 50 µM (active)
same,IC50,[10],137 µM (active)
CCN(CC)c1ccc(CNc2nc3ccccc3n2C)cc1,EC50,[5],> 50 µM (active)
N#Cc1cc(-c2ccccc2)cnc1Cl,AC50,[2],6.29 µM (active)
O=C(O)CCc1nc(-c2ccc(Cl)cc2)no1,AC50,[2],16.1 µM (active)
C=C(C)Cn1c(SCC#N)nc2ccccc2c1=O,EC50,[5],> 50 µM (active)
